Experimental data as given in patent US9623030B2, “Tumescent antibiotic solution” (priority 2004, dated 2017).
In brackets after ≈: the same amount, converted by molar mass.

What was measured:
[1] = test system: Staphyloccus aureus (MRSA) ATCC 33592; test: Minimum Inhibitory Concentration (MIC) by dilution; settings: Staphylococcus aureus, read-out: MIC
Procedure: Following inoculation, survival of test microorganisms was determined.

[2] = test system: S. aureus; settings: effect increases with greater duration of exposure; cited from earlier work
[3] = cited from earlier work
[4] = test system: platelet aggregation; settings: cited from earlier work
[5] = female, human, in vivo
Procedure: A clinical pharmacologic investigation was conducted to compare the pharmacokinetic advantages of two modes of systemic antibiotic delivery, Tumescent antibiotic delivery (TAD), which involves the delivery of a relatively large volume of an antibiotic-containing solution to the subcutaneous compartment, and intravenous antibiotic delivery (IVAD), which results in direct delivery of antibiotics to the blood stream, for prophylaxis of SSI.
With Institutional Review Board (IRB) approval, the absorption pharmacokinetics of tumescent antibiotic delivery (TAD) and intravenous antibiotic delivery (IVAD) were tested in human subjects and the antibiotic delivery modes were evaluated with respect to the area under the curve (AUC) of antibiotic concentration as a function of time and peak antibiotic concentration (Cmax) in serum and TISF. 4 female subjects participated in at least one study, one subject volunteered for 2 separate studies. 5 studies were conducted: 3 involved TAD to the abdomen, 1 involved TAD to the hips and outer thighs and 1 involved TAD to the breasts. […] Each of the 5 studies consisted of 2 to 3 pharmacokinetic procedures, for a total of 14 procedures. Any procedures conducted on an individual subject were separated by at least one week. In 13 procedures only IVAD or TAD, was used. […]

[6] = 1 gm given at the end of the surgery; 405 abdominal surgery patients; cited from earlier work

## Cc1nnc(SCC2=C(C(=O)O)N3C(=O)[C@@H](NC(=O)Cn4cnnn4)[C@H]3SC2)s1 [Cefazolin]
[1]
  MIC: 125 to 250 µg/mL (≈ 275 to 550 µM)

## CCN(CC)CC(=O)Nc1c(C)cccc1C [Lidocaine]
[2]
  bactericidal effect in vitro: bactericidal
[3]; adults, TLA without liposuction
  maximum safe mg/kg dosage of tumescent lidocaine (estimated): 30 mg/kg
[3]; commercial lidocaine (1%) with epinephrine (1:100,000)
  dosage limitation approved by the FDA for infiltration local anesthesia: 7 mg/kg
[3]; routine local anesthesia
  duration of local anesthesia: 2 h
[4]; aggregation induced by ADP, epinephrine and collagen
  lidocaine concentration consistently inhibiting in-vitro platelet aggregation: ≥ 0.5 mg/mL
[4]; safe systemic concentrations (≦6 micrograms/ml)
  effect on platelet aggregation: no effect

## Cc1ncc([N+](=O)[O-])n1CCO [Metronidazole]
[5]
  interval in which serum concentration of metronidazole exceeded 4 μg/ml: 0 to 12 h

## O=C(Cc1cccs1)N[C@@H]1C(=O)N2C(C(=O)[O-])=C(C[n+]3ccccc3)CS[C@H]12 [cephaloridine]
[6]
  incidence of wound infection, intravenous vs intra incisional: no significant difference
